The results in this text go back to patent publication US12686832B2, “Ashless ionic liquid” (PETROLIAM NASIONAL BERHAD (PETRONAS), priority 2022, dated 2026).

Series [1] can be described thus: Thermo-gravimetric analysis under nitrogen (ashless nature). The format is physicochemical. The source says:
The ashless nature of the formed ionic liquid was confirmed by thermo-gravimetric analysis under nitrogen (0.4788 wt. % residue).
The ashless nature of the formed ionic liquid was confirmed by thermo-gravimetric analysis under nitrogen (0.47271 wt. % residue).

Series [2] can be described thus: High Frequency Reciprocating Rig (HFRR) tribology test. The following applies: for Friction coefficient behaviour over contact time / friction reduction compared to the baseline fluid / wear scar diameter reduction compared to the baseline fluid: 1 wt % in PETRONAS LB 25 polyol ester; for Friction coefficient behaviour over contact time: vs baseline fluid. The method, then: High Frequency Reciprocating Rig (HFRR): tribology test rubbing of ball to disc metal specimens, under pure sliding contact (boundary lubrication regime), load at 400 g, frequency at 20 Hz, temperature at 120° C. for 60 mins. Only visually soluble solutions were evaluated, therefore, only Formulation 2 and Formulation 3 were tested. Reported values were the average of minimum 2 repeat runs.
High Frequency Reciprocating Rig (HFRR): tribology test rubbing of ball to disc metal specimens, under pure sliding contact (boundary lubrication regime), load at 400 g, frequency at 20 Hz, temperature at 120° C. for 60 mins. Only visually soluble solutions were evaluated, therefore, only Formulation 2 was tested. Reported values were the average of minimum 2 replicate runs.
High Frequency Reciprocating Rig (HFRR): tribology test rubbing of ball to disc metal specimens, under pure sliding contact (boundary lubrication regime), load at 400 g, frequency at 20 Hz, temperature at 120° C. for 60 mins. Reported values were the average of minimum 2 replicate runs.

The nature of series [3]: Miscibility study in ETRO 4+. The format is physicochemical. Particulars: 1 wt. % in ETRO 4+, mixed at 60° C. for 1 h, left 24 h before observation. The procedure:
Synthesised ionic liquids (1 wt. %) were mixed with ETRO 4+ solution at 60° C. for 1 h, and left to sit for 24 h before observation.

A short description of series [4]: Experimental solubility at 1 wt % in lubricant base oils. The series is classed as physicochemical. The procedure:
ILN18-5B-DC12 was mixed in mineral base oil Group III+ (ETRO 4+) and PETRONAS LB 25 polyol ester (and their mixtures) at 1 wt. % concentration to assess solubility and tribology evaluation. Samples were prepared by mixing the solutions at 60° C. for 1 h.
Samples were prepared by mixing the solutions at 60° C. for 1 h.
ILN18-MECA-1 was mixed in mineral base oil Group III+(ETRO 4+) and PETRONAS LB 25 polyol ester at 1 wt % concentration respectively to assess solubility and tribology evaluation. Samples were prepared by mixing the solutions at 60° C. for 1 h.

[5] abbreviates: HFRR 400 g, 20 Hz, 120° C., 60 mins.
Setting [6] is: 1 wt % in ETRO 4+ (89%) and LB 25 (10%), HFRR 400 g, 20 Hz, 120° C., 60 mins.

Turning to “tris-(trioctyl methylammonium) trisebacate [ILN18-6BT-DC10]”, in series [1], the “residue in thermo-gravimetric analysis” value was found to be 0.4727 wt. %. The “Friction coefficient behaviour over contact time” value in series [2] is “significant friction reduction”. For the same compound, in series [2] (setting [5]), the “friction reduction compared to the baseline fluid” value was 57% and the “wear scar diameter reduction compared to the baseline fluid” value was found to be 58%.
In the case of `CCCCCCCCC(=O)OC(CCCCCC)CCCCCCCCCCC(=O)[O-].CCCCCCCC[N+](C)(CCCCCCCC)CCCCCCCC` (stereo not shown) [ILN18-MECA-4], the “Appearance (miscibility)” value in series [3] is “Clear solution”.
Still for that read-out and setting: next, `CC(C)(COC(=O)CCCCCCCCC(=O)[O-])COC(=O)CCCCCCCCC(=O)[O-].CCCCCCCC[N+](C)(CCCCCCCC)CCCCCCCC.CCCCCCCC[N+](C)(CCCCCCCC)CCCCCCCC` [ILN18-5B-DC10]: “Insoluble (2 separate phases)”.
On the same count and under the same terms, next, `CCCCCCCC[N+](C)(CCCCCCCC)CCCCCCCC.CCCCCCCC[N+](C)(CCCCCCCC)CCCCCCCC.O=C([O-])CCCCCCCCCCC(=O)[O-]` [ILN18-DC12, reference compound]: “Insoluble (2 separate phases)”.
Consider `CC(C)(COC(=O)CCCCCCCCCCC(=O)O)COC(=O)CCCCCCCCCCC(=O)O` [ILN18-5B-DC12], for which, in series [1], the “residue in thermo-gravimetric analysis” value was 0.4788 wt. %. Also, the Experimental solubility result is “Insoluble” in series [4] (Formulation 1: 1 wt % in Group III Mineral Oil (ETRO 4+), mixed at 60° C. for 1 h); “Soluble, clear solution” in series [4] (Formulation 2: 1 wt % in PETRONAS polyol ester LB 25, mixed at 60° C. for 1 h); “Soluble, clear solution” in series [4] (Formulation 3: 1 wt % in ETRO 4+ (89%) and LB 25 (10%), mixed at 60° C. for 1 h). Further, in series [2] (setting [6]), the “friction reduction compared to baseline” value amounted to 55%. Further, the “wear scar diameter reduction compared to baseline” value in series [2] (setting [6]) was determined as 57%. The “Friction coefficient behaviour over contact time” value in series [2] is recorded as “significant friction reduction”. Moreover, the “friction reduction compared to the baseline fluid” value in series [2] (setting [5]) turned out to be 67%. Moreover, in series [2] (setting [5]), the “wear scar diameter reduction compared to the baseline fluid” value worked out at 59%.
